Test results: patent US11912675B1, “N'-(2-(5-(4-chlorophenyl)-1,3,4-oxadiazol-2-ylthio)acetoxy)-3,4-dimethoxybenzimidamide as an antimicrobial compound” (KING FAISAL UNIVERSITY, priority 2023, dated 2024)

Legend:
Type in all cases: cell-based
Escherichia coli = assay: agar plate disc-diffusion, antibacterial, Escherichia coli; settings: nutrient agar, 37° C., 48 h, DMSO control zone subtracted
Method: The agar plate disc-diffusion method was applied. Sterilized filter papers (6 mm in diameter) were wetted with 10 μL of a solution of N′-(2-(5-(4-chlorophenyl)-1,3,4-oxadiazol-2-ylthio)acetoxy)-3,4-dimethoxybenzimidamide (3) to be tested, containing 10 mg/mL in DMSO, and the discs were allowed to air dry. The discs were then placed onto the surface of agar plates (nutrient agar for bacteria and Sabouraud's dextrose agar for fungi) seeded with the test organism. Each plate contained 15 mL of the agar medium, previously seeded with 0.2 mL of the broth culture of each organism pregrown for 18 h. The plates were incubated at 37° C. for 48 h, and 72 h for fungi. The inhibition zones was measured in mm. Discs impregnated with DMSO were used as a control, and its inhibition zone was subtracted from the tested compound actual inhibition zone.
(§1) The antibacterial activity was screened against gram positive bacteria namely Bacillus cereus and Staphylococcus aureus and gram-negative bacterial strains namely Pseudomonas aeruginosa and Escherichia coli, while the antifungal activity was screened against Aspergillus flavus and Chrysosporium keratinophilum as shown in Table 1 and 2.

Bacillus cereus = assay: agar plate disc-diffusion, antibacterial, Bacillus cereus; settings: nutrient agar, 37° C., 48 h, DMSO control zone subtracted
Method: (§2) The agar plate disc-diffusion method was applied. […] The discs were then placed onto the surface of agar plates (nutrient agar for bacteria and Sabouraud's dextrose agar for fungi) seeded with the test organism. Each plate contained 15 mL of the agar medium, previously seeded with 0.2 mL of the broth culture of each organism pregrown for 18 h. The plates were incubated at 37° C. for 48 h, and 72 h for fungi. The inhibition zones was measured in mm. Discs impregnated with DMSO were used as a control, and its inhibition zone was subtracted from the tested compound actual inhibition zone.
as §1

Pseudomonas aeruginosa = assay: agar plate disc-diffusion, antibacterial, Pseudomonas aeruginosa; settings: nutrient agar, 37° C., 48 h, DMSO control zone subtracted
Method: as §2, §1

Staphylococcus aureus = assay: agar plate disc-diffusion, antibacterial, Staphylococcus aureus; settings: nutrient agar, 37° C., 48 h, DMSO control zone subtracted
Method: as §2, §1

[1] = test system: Chrysosporium keratinophilum; assay: agar plate disc-diffusion, antifungal, Chrysosporium keratinophilum; settings: Sabouraud's dextrose agar, 72 h, DMSO control zone subtracted
Method: as §2, §1

Aspergillus flavus = assay: agar plate disc-diffusion, antifungal, Aspergillus flavus; settings: Sabouraud's dextrose agar, 72 h, DMSO control zone subtracted
Method: as §2, §1

[2] = A = concentration of comp. = 10,000 μg/mL
[3] = B = concentration of comp. = 30,000 μL
[4] = C = concentration of comp. = 50,000 μL
[5] = A = concentration of comp. = 10,000 μL

In the case of `COc1ccc(/C(N)=N/OC(=O)CSc2nnc(-c3ccc(Cl)cc3)o2)cc1OC` [compound 3, N′-(2-(5-(4-chlorophenyl)-1,3,4-oxadiazol-2-ylthio)acetoxy)-3,4-dimethoxybenzimidamide], the “inhibition zone, Escherichia coli, A” value (Escherichia coli; [2]) is reported as 28 mm, the “inhibition zone, Escherichia coli, B” value (Escherichia coli; [3]) is reported as 31 mm and the “inhibition zone, Escherichia coli, C” value (Escherichia coli; [4]) is reported as 48 mm. The “inhibition zone, Bacillus Cereus, A” value (Bacillus cereus; A =) was 27 mm, the “inhibition zone, Bacillus Cereus, B” value (Bacillus cereus; [3]) was 30 mm and the “inhibition zone, Bacillus Cereus, C” value (Bacillus cereus; [4]) was 40 mm. The “inhibition zone, Pseudomonas aeruginosa, A” value (Pseudomonas aeruginosa; [5]) was 25 mm, the “inhibition zone, Pseudomonas aeruginosa, B” value (Pseudomonas aeruginosa; [3]) was 29 mm and the “inhibition zone, Pseudomonas aeruginosa, C” value (Pseudomonas aeruginosa; [4]) was 41 mm. For the same compound, the “inhibition zone, Staphylococcus aureus, A” value (Staphylococcus aureus; [2]) was 17 mm, the “inhibition zone, Staphylococcus aureus, B” value (Staphylococcus aureus; [3]) was 22 mm and the “inhibition zone, Staphylococcus aureus, C” value (Staphylococcus aureus; [4]) was 37 mm. For the same compound, the “inhibition zone, Chrysosporium keratinophilum, A” value ([1]; A =) was 26 mm, the “inhibition zone, Chrysosporium keratinophilum, B” value [1, 3] was 27 mm and the “inhibition zone, Chrysosporium keratinophilum, C” value [1, 4] was 40 mm. The “inhibition zone, Aspergillus flavus, A” value (Aspergillus flavus; [5]) was 22 mm, the “inhibition zone, Aspergillus flavus, B” value (Aspergillus flavus; [3]) was 26 mm and the “inhibition zone, Aspergillus flavus, C” value (Aspergillus flavus; [4]) was 37 mm.
